# Laboratory results taken from ChEMBL document CHEMBL2203038, “Isolation and synthesis of two antiproliferative calamenene-type sesquiterpenoids from Sterculia tavia from the Madagascar rain forest” (Bioorg Med Chem, 2012).
# pIC50: −log10 of the molar value.
# System: A2780
# Assay: Antiproliferative activity against human A2780 cells after 2 days by alamar blue assay
# Assay type: functional, cell-based
# Details: A2780, 48 h
row,SMILES,pIC50
1,COc1cc2c(cc1C)C(C(C)C)CC(=O)[C@]2(C)O (stereo partly specified),4.47
2,COc1cc2c(cc1C)C(O)(C(C)C)C(O)C(O)[C@]2(C)O (mixture of isomers),4.45
3,COc1cc2c(cc1C)C(C(C)C)=CC(O)[C@]2(C)O (stereo partly specified),4.66
4,COc1cc2c(cc1C)C(C(C)C)CC=C2C (stereo unspecified),< 4.30
5,COc1cc2c(cc1C)[C@](O)(C(C)C)C(=O)C(=O)[C@@]2(C)O (stereo in doubt),5.17
6,CC1=Cc2c(c(C)cc(O)c2C(C)C)C(=O)C1=O [MANSONONE G],4.99
7,COc1cc2c(cc1C)C(C(C)C)CC(O)[C@]2(C)O (stereo partly specified),< 4.30

# Now those with a higher pIC50, led by results:
row,pIC50,SMILES
1,5.23,COc1cc2c(cc1C)[C@@](O)(C(C)C)C(=O)C(=O)[C@@]2(C)O (stereo in doubt)
2,5.20,COc1cc2c(cc1C)[C@@](O)(C(C)C)C(=O)C(=O)[C@]2(C)O (stereo in doubt)
3,5.26,COc1cc2c(cc1C)[C@](O)(C(C)C)C(=O)C(=O)[C@]2(C)O (stereo in doubt)
4,5.40,COc1cc2c(cc1C)C(C(C)C)=CC(=O)[C@]2(C)O [LACINILENE C METHYL ETHER]
